The text below walks through data of ChEMBL document CHEMBL4477213, “Discovery and Optimization of Quinazolinone-pyrrolopyrrolones as Potent and Orally Bioavailable Pan-Pim Kinase Inhibitors” (J Med Chem, 2016).

Data set [1] is described as follows: Intrinsic clearance in human liver microsomes at 1 uM after 30 mins in presence of NADPH. The format is ADME, Microsome. To be noted: read-out: CLH. For orientation: Microsomes from liver hold many membrane-bound enzymes, among them those of drug oxidation.
Data set [2] in a line: Intrinsic clearance in rat liver microsomes at 1 uM after 30 mins in presence of NADPH. Format: ADME, Microsome. The conditions noted are these: read-out: CLH.
Data set [3] deals with Serine/threonine-protein kinase pim-1 (Homo sapiens, UniProt P11309).
Description: Inhibition of full length recombinant Pim-1 (unknown origin) assessed as reduction in phosphorylation of biotinylated-BAD peptide at Serine 112 residue preincubated for 30 mins followed by substrate addition for 1 hr by HTRF assay
The target of data set [4] is Serine/threonine-protein kinase pim-2 (Homo sapiens, UniProt Q9P1W9). In words: Inhibition of full length recombinant Pim-2 (unknown origin) assessed as reduction in phosphorylation of biotinylated-BAD peptide at Serine 112 residue preincubated for 30 mins followed by substrate addition for 1 hr by HTRF assay. (In general: Time-resolved FRET reads energy transfer from a long-lived donor to a nearby acceptor.)

For data set [5], the target named is Serine/threonine-protein kinase PIM (Homo sapiens, UniProt P11309+Q9P1W9+Q86V86). To be noted: kms-12-bm.
Description: Inhibition of pan Pim in human KMS-12-BM cells assessed as reduction in phosphorylation of biotinylated-BAD peptide at Serine 112 residue after 110 mins by flow cytometry
Data set [6] is described as follows: Half life in rat at 2 mg/kg, iv or 5 mg/kg, po. Format: ADME, organism-based. To be noted: in vivo.
Data set [7] can be described thus: Volume of distribution at steady state in rat at 2 mg/kg, iv or 5 mg/kg, po. The format is ADME, organism-based. The conditions noted are these: in vivo, read-out: Vdss.
The nature of data set [8]: Clearance in rat at 2 mg/kg, iv. Format: ADME, organism-based. The conditions noted are these: in vivo.
Data set [9] in a line: Oral bioavailability in rat at 5 mg/kg. The format is ADME, organism-based. To be noted: in vivo.
Data set [10] in a line: Aqueous solubility of the compound in FaSIF at pH 6.8 after 1 hr by LC/MS analysis.

SMILES strings stand for the structures. In brackets after ≈: the same amount, converted by molar mass. Some results are limits rather than exact numbers.

Chain of Serine/threonine-protein kinase pim-2 (Q9P1W9 whole entry): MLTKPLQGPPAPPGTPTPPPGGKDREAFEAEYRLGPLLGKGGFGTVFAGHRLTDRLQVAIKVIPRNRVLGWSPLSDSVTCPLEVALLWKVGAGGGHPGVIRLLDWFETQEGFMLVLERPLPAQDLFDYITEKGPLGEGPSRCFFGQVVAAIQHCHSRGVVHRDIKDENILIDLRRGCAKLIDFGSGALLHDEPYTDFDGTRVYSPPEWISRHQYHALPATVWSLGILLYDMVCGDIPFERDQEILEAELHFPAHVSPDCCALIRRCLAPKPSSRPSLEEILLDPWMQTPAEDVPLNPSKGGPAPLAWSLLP
Chain of Serine/threonine-protein kinase pim-1 (P11309 whole entry): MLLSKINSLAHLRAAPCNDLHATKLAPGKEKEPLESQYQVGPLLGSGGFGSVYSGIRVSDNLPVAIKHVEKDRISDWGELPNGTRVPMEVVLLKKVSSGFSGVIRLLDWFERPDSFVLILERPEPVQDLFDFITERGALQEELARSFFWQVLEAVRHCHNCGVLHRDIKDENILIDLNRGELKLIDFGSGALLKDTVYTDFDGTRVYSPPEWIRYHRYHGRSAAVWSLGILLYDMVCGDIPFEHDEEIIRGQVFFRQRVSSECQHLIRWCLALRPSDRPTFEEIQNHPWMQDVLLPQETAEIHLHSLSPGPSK

On to `Cc1nc2cccc(-c3cc4c([nH]3)[C@H](C)NC4=O)c2nc1NC(C)(C)C`, for which the figures for the microsomal CLint at 1 µM in data set [1] and in [2] were 89 µL/min/mg and 130 µL/min/mg, respectively.

For the compound `C[C@H]1NC(=O)c2cc(-c3cccc4c3N=C(NC(C)(C)C)N(C)S4(=O)=O)[nH]c21`, the IC50 in [3] was 6.5 nM; in data set [4], 5.2 nM; in [5], 1142 nM.

For `Cc1nc2cccc(-c3cc4c([nH]3)[C@@H](CCN)NC4=O)c2nc1NC(C)(C)C`, the microsomal CLint at 1 µM in data set [1] and in data set [2] was < 14 µL/min/mg throughout. Also, the IC50 worked out at 0.6 nM in data set [3], 0.3 nM in [4] and 22 nM in data set [5]. This compound also gave a half-life in [6] of 17.5 h. Also, in data set [7], the Vd was determined as 21.2 L/kg. In addition, in data set [8], the clearance is 1.4 L/h/kg. Further, the bioavailability in data set [9] is < 1%.

`Cc1c(NC(C)(C)C)nc2c(-c3cc4c([nH]3)[C@@H](C)NC4=O)cccn2c1=O`: the IC50 was 3.1 nM in data set [3], 2.1 nM in [4] and > 2000 nM in [5].

As for `Cc1nc2cccc(-c3cc4c(s3)CNC4=O)c2nc1NC(C)(C)C`, the microsomal CLint at 1 µM in [1] worked out at 102 µL/min/mg; in [2], 326 µL/min/mg. For the same compound, the IC50 turned out to be 6.4 nM in data set [3], 6.8 nM in data set [4] and 2870 nM in data set [5].

Consider `Cc1nc2cccc(-c3cc4c(s3)C(=O)NC4)c2nc1NC(C)(C)C`, for which the values for the microsomal CLint at 1 µM in [1] and in data set [2] were 104 µL/min/mg and 373 µL/min/mg, respectively. In addition, the figures for the IC50 in [3], in [4] and in data set [5] were 2.5 nM, 2.5 nM and 1380 nM, respectively.

For `Cc1nc2cccc(-c3cc4n(c3)CCNC4=O)c2nc1NC(C)(C)C`, the microsomal CLint at 1 µM in data set [1] came to 85 µL/min/mg; in [2] it was 205 µL/min/mg. In addition, the results for the IC50 in [3], in data set [4] and in data set [5] were 6.6 nM, 6.1 nM and 4560 nM, respectively.

Compound `Cc1nc2cccc3c2nc1N[C@H](C)/C=C\C[C@H]1CNC(=O)c2cc-3[nH]c21` came in with a solubility at 1 h in data set [10] of 295 µM (≈ 106 µg/mL).

On to `Cc1nc2cccc(-c3[nH]c4c(c3Cl)C(=O)N[C@@H]4C)c2nc1NC(C)(C)C`, for which the figures for the microsomal CLint at 1 µM in data set [1] and in data set [2] were 111 µL/min/mg and 143 µL/min/mg, respectively.

In the case of `C[C@H]1NC(=O)c2cc(-c3nccc4c(=O)n(C)c(NC(C)(C)C)nc34)[nH]c21`, the IC50 in data set [3] is 4.5 nM; in data set [4], 7.4 nM; in data set [5], 1642 nM.

With `Cc1nc2cccc(-c3cc4c([nH]3)C3(CCOCC3)NC4=O)c2nc1NC(C)(C)C`, the microsomal CLint at 1 µM in [1] was < 14 µL/min/mg; in data set [2] it was 45 µL/min/mg. The IC50 is 44 nM in data set [3], 117 nM in data set [4] and 5760 nM in data set [5].

With `Cc1nc2cccc(-c3cc4c([nH]3)CCNC4=O)c2nc1NC(C)(C)C`, the values for the microsomal CLint at 1 µM in [1] and in data set [2] were 70 µL/min/mg and 86 µL/min/mg, respectively. The IC50 stood at 0.8 nM in data set [3], 0.6 nM in data set [4] and 110 nM in data set [5]. The half-life in [6] was 4.7 h. Moreover, in [7], the Vd was found to be 4.2 L/kg. The same compound gave a clearance in data set [8] of 0.7 L/h/kg. In [9], the bioavailability is 6%.

`Cc1nc2cccc(-c3cc4c([nH]3)CNC4=O)c2nc1NC(C)(C)C`: the microsomal CLint at 1 µM in [1] is 45 µL/min/mg; in [2], 96 µL/min/mg. Moreover, the values for the IC50 in data set [4] and in [5] were 0.9 nM and 44 nM, respectively. Moreover, the half-life in [6] is 1.7 h. Also, the Vd in data set [7] came to 2.3 L/kg. Moreover, the clearance in data set [8] is 1.6 L/h/kg. Besides, the bioavailability in data set [9] worked out at 36%.

On to `Cc1nc2cccc(-c3cc4c([nH]3)CCCNC4=O)c2nc1NC(C)(C)C`, for which the figures for the microsomal CLint at 1 µM in data set [1] and in data set [2] were 67 µL/min/mg and 169 µL/min/mg, respectively.

The IC50 is the concentration at which inhibition is half-maximal. A word on the half-life: it is how long it takes for the measured level to halve. A word on the clearance: it is the volume of plasma or blood freed of the substance per unit of time. Low readings indicate inefficient removal, high ones efficient removal. As usually defined, the bioavailability is the share of a dose that reaches the circulation, judged against a reference dose that is usually intravenous. A high value points to much systemic uptake. What is called solubility is the dissolved amount per volume that the medium holds. High values mean a readily soluble substance, low ones a poorly soluble substance.
